# Source: patent publication US11690825B2 (BOARD OF REGENTS, THE UNIVERSITY OF TEXAS SYSTEM, priority 2016, dated 2023)
# Columns and labels:
# [1] = test system: arteries (responsiveness to the constrictor activity of phenylephrine); assay: Vasoactivity bioassay: ability of 20-HETE to enhance responsiveness of arteries to phenylephrine (PE) constriction; conditions: for Fold Change from 20-HETE: negative values = 20-HETE antagonists, positive values = agonists
# [2] = test system: membrane fractions of human endothelial cells (EC); assay: 20-APheDa UV crosslinking / click-chemistry band competition; assay type: binding; conditions: excess amounts of competitor
# Procedure: When incubated with membrane fractions of human endothelial cells (EC) followed by 15 min of UV (365 nm) crosslinking and 1 h incubation with the click reagent (DBCO-IRdye 800CW, LiCor), an intense band of approximately 47-49 kDa was detected (FIG. 8c).
# [3] = test system: NO bioavailability and ACE expression; conditions: cited from earlier work
# [4] = test system: TAFI, thrombin-activated fibrinolysis inhibitor; conditions: endothelial cells; cited from earlier work
# ACE = ACE transcription (mRNA) in endothelial cells; assay type: cell-based, human; conditions: EC
# GPR75 [5] = target: T1, GPR75 (Homo sapiens, UniProt O95800); assay: GPR75 immunoprecipitation in EC (HMVEC); assay type: cell-based; design: endogenous in cells; host or cells: HMVEC (human microvascular endothelial cells); EA.hy926 lysate is also mentioned; conditions: 10 nM for 5 min
# Description: Immunoprecipitation of GPR75 in EC further indicated its association with Gαq/11, GIT1 and HIC-5 (FIG. 11a). […] No change in GPR75-Gαq/11 association was detected in EC (FIG. 11b).
# Immunoprecipitation. […] Western Blot Analysis.
# Target sequence in this assay (O95800 whole entry): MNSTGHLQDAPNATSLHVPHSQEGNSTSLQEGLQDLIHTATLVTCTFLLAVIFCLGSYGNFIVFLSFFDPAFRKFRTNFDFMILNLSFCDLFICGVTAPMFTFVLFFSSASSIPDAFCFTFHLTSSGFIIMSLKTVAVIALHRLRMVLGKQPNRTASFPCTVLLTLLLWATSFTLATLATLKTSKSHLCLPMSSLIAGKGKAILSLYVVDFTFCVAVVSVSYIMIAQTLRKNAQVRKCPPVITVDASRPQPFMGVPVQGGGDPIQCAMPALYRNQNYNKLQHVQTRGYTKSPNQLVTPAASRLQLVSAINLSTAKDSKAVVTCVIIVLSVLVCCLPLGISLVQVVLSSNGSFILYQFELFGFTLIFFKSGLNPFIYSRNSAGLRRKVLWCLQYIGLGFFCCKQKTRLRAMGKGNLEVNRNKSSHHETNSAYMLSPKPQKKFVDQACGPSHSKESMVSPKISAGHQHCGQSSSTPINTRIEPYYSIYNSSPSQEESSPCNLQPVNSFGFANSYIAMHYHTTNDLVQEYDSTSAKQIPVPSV
# Target sequence in this assay (Q9Y2X7 whole entry partner): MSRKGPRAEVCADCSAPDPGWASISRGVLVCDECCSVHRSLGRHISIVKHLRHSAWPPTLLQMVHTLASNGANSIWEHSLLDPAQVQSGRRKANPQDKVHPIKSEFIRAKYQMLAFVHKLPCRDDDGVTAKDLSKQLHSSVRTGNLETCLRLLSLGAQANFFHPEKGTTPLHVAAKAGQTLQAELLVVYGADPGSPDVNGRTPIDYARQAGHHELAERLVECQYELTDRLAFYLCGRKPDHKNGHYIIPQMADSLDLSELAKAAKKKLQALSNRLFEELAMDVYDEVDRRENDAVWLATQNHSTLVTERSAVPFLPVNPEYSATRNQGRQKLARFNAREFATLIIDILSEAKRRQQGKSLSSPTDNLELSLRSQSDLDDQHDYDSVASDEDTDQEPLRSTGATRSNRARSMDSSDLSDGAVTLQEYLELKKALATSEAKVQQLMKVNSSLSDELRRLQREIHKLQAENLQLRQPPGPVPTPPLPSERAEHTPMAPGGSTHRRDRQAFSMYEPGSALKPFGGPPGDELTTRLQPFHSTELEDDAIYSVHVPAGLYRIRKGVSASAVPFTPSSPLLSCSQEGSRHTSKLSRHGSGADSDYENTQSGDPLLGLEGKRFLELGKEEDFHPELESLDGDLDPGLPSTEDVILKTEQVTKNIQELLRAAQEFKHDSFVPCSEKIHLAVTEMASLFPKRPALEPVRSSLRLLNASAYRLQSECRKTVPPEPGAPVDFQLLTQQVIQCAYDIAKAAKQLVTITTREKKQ
# GPR75 [6] = target: T1, GPR75; assay: β-arrestin GPCR recruitment assay, GPR75 expressed in CHO cells; assay type: cell-based; design: expressed in transfected cells; host or cells: CHO cells
# Description: β-arrestin represents a robust and widely used screening technology for GPCR-ligand pairing. GPCR-mediated β-arrestin recruitment is also recognized as a distinct intracellular signaling pathway, and ligand-receptor interactions may show a bias toward β-arrestin over classical GPCR signaling pathways.
# Target sequence in this assay (O95800 whole entry): as the sequence (O95800 whole entry) above
# EGFR = EGFR tyrosine phosphorylation and c-Src association in EC
# [7] = test system: mouse models of hypertension; assay: DOX mouse model of hypertension: blood pressure, ACE expression, vascular remodeling; assay type: in vivo
# Procedure: Systolic blood pressure measurements were taken using the CODA tail-cuff system (Kent Scientific), which utilizes volume pressure recording sensor technology. Mice were acclimated to the machine for one week prior to day 0 and blood pressure was monitored throughout the length of the experiment. […] At the end of the experiment, mice were anesthetized with ketamine (70 mg/kg) and xylazine (70 mg/kg) and laporotomy was performed. Preglomerular arteries were microdissected and collected for western blot analysis, lipid extraction and functional studies. Measurements of Media Thickness, Media to Lumen Ratio, and Medial Cross-Sectional Area (CSA) Segments of renal interlobar arteries were dissected and mounted on a pressurized myograph and equilibrated for 1 h in oxygenated krebs buffer at 37° C. The operator was blinded to treatments except for the blood pressure range of the animal. Lumen diameters from normotensive animals were determined at 100 mmHg and hypertensive animals at 140 mmHg. Measurements of outer diameter (OD) and inner diameter (ID) under passive conditions were used to calculate media thickness [(OD−ID)/2], media to lumen ratio (OD−ID)/ID], and medial cross-sectional area [CSA=(π/4)×(OD2−ID2)] […] Expression of ACE. […] SDS-polyacrylamide gels were transferred to Tran-Blot Turbo Mini PVDF membranes (Bio-Rad, Hercules, Calif.) followed by blocking buffer (Li-Cor, Lincoln, Nebr.) and subsequent incubation with primary and secondary antibodies.
# Cyp4a14−/− mice = assay: High-fat diet in Cyp4a14−/− mice overexpressing 20-HETE; assay type: in vivo, mouse
# Water solubility = assay type: physicochemical
# Description: As used herein, the term “water soluble” means that the compound dissolves in water at least to the extent of 0.010 mole/liter or is classified as soluble according to literature precedence.
# JCR rats = assay: Coronary collateral growth in rat model of metabolic syndrome; assay type: in vivo; conditions: JCR rats compared with SD rats
# [8] = Cyp4a14−/− mice on a high-fat diet
molecule,measurement,setting,value
"C[C@H](O)CCC/C=C\CCCCCCC/C=C\CCCC(=O)NCC(=O)[O-].[Na+] [Analog 7, Sodium (19(S)-hydroxyeicosa-5(Z),14(Z)-dienoyl)glycinate]",Fold Change from 20-HETE,[1]; fold change of EC50 to PE,−3.46
"CCCCC/C=C\C[C@H](O)/C=C/C=C\C/C=C\CCCC(=O)O [12(S)-HETE, 12(S)-hydroxyeicosa-5(Z),8(Z),10(E),14(Z)-tetraenoic acid]",competition with formation of the 47-49 kDa 20-APheDa band,[2],not
"Sodium 20-azido-19(R)-hydroxyeicosa-5(Z),14(Z)-dienoate [Analog 3]",Fold increase/decrese from 20-HETE,"[1]; Table 2, fold change of EC50 to PE",−6.78
"[N-]=[N+]=N[C@@H](CO)CCC/C=C\CCCCCCC/C=C\CCCC(=O)[O-].[Na+] [Analog 6, Sodium 19(R)-azido-20-hydroxyeicosa-5(Z),14(Z)-dienoate]",Fold Change from 20-HETE,[1]; fold change of EC50 to PE,0.50
"[N-]=[N+]=N[C@H](CO)CCC/C=C\CCCCCCC/C=C\CCCC(=O)[O-].[Na+] [Analog 5, Sodium 19(S)-azido-20-hydroxyeicosa-5(Z),14(Z)-dienoate]",Fold Change from 20-HETE,[1]; fold change of EC50 to PE,0.16
"[N-]=[N+]=NC[C@@H](O)CCC/C=C\CCCCCCC/C=C\CCCC(=O)NS(=O)(=O)c1ccc(NC(=O)CCc2ccc(C(=O)c3ccccc3)cc2)cc1 [PCL, 20-azido-N-((4-(3-(4-benzoylphenyl)propanamido)phenyl)sulfonyl)-19(S)-hydroxyeicosa-5(Z),14(Z)-dienamide]","block of 20-HETE-mediated sensitization of PE vasoconstriction, change of EC50 to PE",[1]; FIG. 8b,4 fold
same,Fold Change from 20-HETE,[1]; fold change of EC50 to PE,−3.28
"CCC(O)CC/C=C\CCCCCCC/C=C\CCCC(=O)[O-].[Na+] (centres unmarked) [Analog 15, Sodium 18-hydroxyeicosa-5(Z),14(Z)-dienoate]",Fold Change from 20-HETE,[1]; fold change of EC50 to PE,−2.17
"C[C@H](O)CCC/C=C\CCCCCCC/C=C\CCCC(=O)[O-].[Na+] [Analog 1, sodium 19(S)-hydroxyeicosa-5(Z),14(Z)-dienoate]",Fold Change from 20-HETE,[1]; fold change of EC50 to PE,−0.68
"[N-]=[N+]=NC[C@H](O)CCC/C=C\CCCCCCC/C=C\CCCC(=O)[O-].[Na+] [Analog 3, Sodium 20-azido-19(R)-hydroxyeicosa-5(Z),14(Z)-dienoate]",Fold Change from 20-HETE,[1]; fold change of EC50 to PE,−5.69
"O=C(O)CCC/C=C\C/C=C\C/C=C\C/C=C\CCCCCO [Analog 20-HETE, 20-hydroxyeicosa-5(Z),8(Z),11(Z),14(Z)-tetraenoic acid]",concentration range of maximal changes in NO bioavailability and ACE expression,[3],5 to 10 nmol/L
same,competition with formation of the 47-49 kDa 20-APheDa band,[2],competed with
same,induction of TAFI expression,[4],2-3 fold
same,ACE transcription (ACE mRNA),ACE,increase in ACE mRNA
same,GPR75-HIC-5 dissociation,GPR75 [5],60%
same,GPR75 activation (β-arrestin recruitment),GPR75 [6],activated GPR75
same,association of c-Src with EGFR,EGFR; EC,increased
same,association of c-Src with GIT1,EGFR; EC,decreased
same,increase of tyrosine phosphorylation of EGFR,EGFR; EC transduced with control siRNA,1.99±0.16 fold
same,increase in EGFR phosphorylation,EGFR; FIG. 12d,2-3 fold
"O=C(O)CNC(=O)CCCC/C=C\CCCCCCC/C=C\CCCCO [20-6,15-HEDGE, 2-(20-hydroxyeicosa-6(Z),15(Z)-dienamido)acetic acid]",ACE expression in preglomerular microvessels (PGMV),[7]; compared with lisinopril and losartan,decreases ACE expression
same,systolic blood pressure,"[7]; in combination with DOX, several time points",decreases systolic blood pressure as effectively as the ACE inhibitors lisinopril and losartan
same,vascular remodeling,"[7]; mouse, in vivo",decreasing vascular remodeling
CCL5: a proposed GPR75 ligand,ACE transcription (ACE mRNA),ACE,did not induce
"O=C([O-])CNC(=O)CCC/C=C\CCCCCCC/C=C\CCCCO.[Na+] [Analog 20, sodium (19-hydroxynonadeca-5(Z),14(Z)-dienoyl)glycinate]",Fold Change from 20-HETE,[1]; fold change of EC50 to PE,−0.74
"O=C([O-])CCC/C=C\CCCCCCC/C=C\CCCCO.[Na+] [Analog 19, Sodium 19-hydroxynonadeca-5(Z),14(Z)-dienoate]",Fold Change from 20-HETE,[1]; fold change of EC50 to PE,−0.68
"CC(O)CCC/C=C\CCCCCCCCCCCCC(=O)NCC(=O)[O-].[Na+] (centres unmarked) [Analog 14, Sodium (19-hydroxyeicosa-14(Z)-enoyl)glycinate]",Fold Change from 20-HETE,[1]; fold change of EC50 to PE,−2.56
"CC(O)CCCCCCCCCCCC/C=C\CCCC(=O)[O-].[Na+] (centres unmarked) [Analog 11, Sodium 19-hydroxyeicosa-5(Z)-enoate]",Fold Change from 20-HETE,[1]; fold change of EC50 to PE,−1.66
"C[C@@H](O)CCC/C=C\CCCCCCC/C=C\CCCC(=O)N[C@@H](CC(=O)[O-])C(=O)[O-].[Na+].[Na+] [Analog 10, Disodium (19(R)-hydroxyeicosa-5(Z),14(Z)-dienoyl)-L-aspartate]",Fold Change from 20-HETE,[1]; fold change of EC50 to PE,−2.03
"CC(O)CCC/C=C\CCCCCCC/C=C\CCCc1nnn[nH]1 (centres unmarked) [Analog 21, 19-(1H-Tetrazol-5-yl)nonadeca-6(Z),15(Z)-dien-2-ol]",Fold Change from 20-HETE,[1]; fold change of EC50 to PE,−0.78
"CC(O)CCC/C=C\CCCCCCCCCCCCC(=O)[O-].[Na+] (centres unmarked) [Analog 12, Sodium 19-hydroxyeicosa-14(Z)-enoate]",Fold Change from 20-HETE,[1]; fold change of EC50 to PE,0.79
"CCC(O)CC/C=C\CCCCCCC/C=C\CCCC(=O)NCC(=O)[O-].[Na+] (centres unmarked) [Analog 16, Sodium (18-hydroxyeicosa-5(Z),14(Z)-dienoyl)glycinate]",Fold Change from 20-HETE,[1]; fold change of EC50 to PE,−1.13
"CC(O)CCCCCCCCCCCC/C=C\CCCC(=O)NCC(=O)[O-].[Na+] (centres unmarked) [Analog 13, Sodium (19-hydroxyeicosa-5(Z)-enoyl)glycinate]",Fold Change from 20-HETE,[1]; fold change of EC50 to PE,−2.19
"[N-]=[N+]=NC[C@@H](O)CCC/C=C\CCCCCCC/C=C\CCCC(=O)[O-].[Na+] [Analog 4, sodium 20-azido-19(S)-hydroxyeicosa-5(Z),14(Z)-dienoate]",Fold Change from 20-HETE,[1]; fold change of EC50 to PE,−5.45
"C[C@@H](O)CCC/C=C\CCCCCCC/C=C\CCCC(=O)[O-].[Na+] [Analog 2, 19(R)-Hydroxyeicosa-5(Z),14(Z)-dienoate]",Fold Change from 20-HETE,[1]; fold change of EC50 to PE,−0.85
"CC(C)(O)CCC/C=C\CCCCCCC/C=C\CCCC(=O)NCC(=O)[O-].[Na+] [Analog 18, Sodium 2-(19-hydroxy-19-methyleicosa-5(Z),14(Z)-dienamido)acetate]",Fold Change from 20-HETE,[1]; fold change of EC50 to PE,−1.16
"COCCOCCOCCOCCOCCOCCOC(=O)CCCC/C=C\CCCCCCC/C=C\CCCCO [20-6,15-SOLA, 2,5,8,11,14,17-hexaoxanonadecan-19-yl 20-hydroxyeicosa-6(Z),15(Z)-dienoate]",high-fat diet-induced hyperglycemia,Cyp4a14−/− mice; Cyp4a14−/− mice,normalized
same,high-fat diet-induced obesity,Cyp4a14−/− mice; Cyp4a14−/− mice,attenuates
same,hyperinsulinemia,Cyp4a14−/− mice; [8],alleviates
same,hyperleptinemia,Cyp4a14−/− mice; [8],alleviates
same,water solubility,Water solubility,water-soluble
same,impaired coronary collateral growth (CCG),JCR rats,attenuates
"C[C@@H](O)CCC/C=C\CCCCCCC/C=C\CCCC(=O)NCC(=O)[O-].[Na+] [Analog 8, Sodium (19(R)-hydroxyeicosa-5(Z),14(Z)-dienoyl)glycinate]",Fold Change from 20-HETE,[1]; fold change of EC50 to PE,−4.67
"C[C@H](O)CCC/C=C\CCCCCCC/C=C\CCCC(=O)N[C@@H](CC(=O)[O-])C(=O)[O-].[Na+].[Na+] [Analog 9, disodium (19(S)-hydroxyeicosa-5(Z),14(Z)-dienoyl)-L-aspartate]",Fold Change from 20-HETE,[1]; fold change of EC50 to PE,−0.59
